Measurements as given in article PMC9237828, “Chemically Tuning Resveratrol for the Effective Killing of Gram-Positive Pathogens” (Journal of Natural Products, 2022).
In brackets after ≈: the same amount, converted by molar mass.

Assays:
E. faecium LMG16003 = assay: Combined action with antibiotics (MIC reduction, checkerboard FICI); type: cell-based
S. aureus LMG8224 = assay: as above; type: cell-based, Staphylococcus aureus; settings: for MIC of antibiotic in combination with RES: RES at 4 μM; for FICI, antibiotic with 15 / FICI, antibiotic with 17: fractional inhibitory concentration index, EUCAST, * means relevant FICI values
C. beijerinckii B504 = assay: MIC test, anaerobes; type: cell-based; settings: Clostridium beijerinckii, B504, 24 h; read-out: Minimal Inhibition Concentration (MIC) C. beijerinckii B504
Experimental: (§1) The resveratrol derivatives were serially diluted in cMHB (BD Difco) in 96-well microplates. Plates were then inoculated with the indicator bacteria at a final concentration of 5 × 10^5 CFU/mL and incubated at 37 °C for 20 h. In the case of the anaerobic bacteria (Clostridium and Clostridioides), the test was performed following the recommendation of CLSI for anaerobes[77] but using RCM medium instead of cMHB. The cultures were cultivated inside an anaerobic chamber at 37 °C for 24 h. All the tests were performed in triplicate.

C. botulinum CECT551 = assay: microbe, parasite or virus in culture; type: cell-based; settings: Clostridium botulinum, CECT551, 24 h, read-out: Minimal Inhibition Concentration (MIC) C. botulinum CECT551
C. tetani CECT4629 = assay: microbe, parasite or virus in culture; type: cell-based; settings: Clostridium tetani, CECT4629, 24 h, read-out: Minimal Inhibition Concentration (MIC) C. tetani CECT4629
[1] = test system: panel of aerobic and anaerobic Gram-positive bacteria; assay: organism not typed; type: cell-based
B. cereus ATCC10987 = assay: microbe, parasite or virus in culture; type: cell-based, Bacillus cereus; settings: Bacillus cereus, ATCC10987, 20 h, read-out: Minimal Inhibition Concentration (MIC) B. cereus ATCC10987
B. cereus ATCC14579 = assay: microbe, parasite or virus in culture; type: cell-based, Bacillus cereus; settings: Bacillus cereus, ATCC14579, 20 h, read-out: Minimal Inhibition Concentration (MIC) B. cereus ATCC14579
C. ihumii AP5 = assay: MIC test, anaerobes; type: cell-based; settings: 24 h; read-out: Minimal Inhibition Concentration (MIC) C. ihumii AP5
Experimental: as §1

C. perfringens CECT376 = assay: microbe, parasite or virus in culture; type: cell-based; settings: Clostridium perfringens, CECT376, 24 h, read-out: Minimal Inhibition Concentration (MIC) C. perfringens CECT376

Row | Compound | MIC of antibiotic alone (Ab) (E. faecium LMG16003) [µM] | MIC of antibiotic in combination with 17 (S. aureus LMG8224; 17 at 2 μM) [µM] | MIC of antibiotic in combination with 17 (S. aureus LMG8224; 17 at 4 μM) [µM] | MIC of antibiotic in combination with RES (S. aureus LMG8224) [µM] | MIC of antibiotic alone (Ab) (S. aureus LMG8224) [µM] | FICI, antibiotic with 17 (S. aureus LMG8224) | antibacterial activity against the Gram-positive panel [1] | further results
1 | NCC[C@H](O)C(=O)N[C@@H]1C[C@H](N)[C@@H](O[C@H]2O[C@H](CN)[C@@H](O)[C@H](O)[C@H]2O)[C@H](O)[C@H]1O[C@H]1O[C@H](CO)[C@@H](O)[C@H](N)[C@H]1O [Ami, amikacin] | >32 | 3.3 ± 0.5 | 0.8 ± 0.1 | 8 ± 0 | 8 ± 0 | 0.60 |  | MIC of antibiotic in combination with 15 (S. aureus LMG8224; 15 at 2 μM): 2 ± 0 µM; MIC of antibiotic in combination with 15 (S. aureus LMG8224; 15 at 4 μM): 0.5 ± 0 µM; FICI, antibiotic with 15 (S. aureus LMG8224): 0.31
2 | NC[C@H]1O[C@H](O[C@H]2[C@H](O)[C@@H](O[C@H]3O[C@H](CO)[C@@H](O)[C@H](N)[C@H]3O)[C@H](N)C[C@@H]2N)[C@H](O)[C@@H](O)[C@@H]1O [Kan, kanamycin] | >32 | 2 ± 0 | 1 ± 0 | 4 ± 0 | 4 ± 0 | 0.75 |  | MIC of antibiotic in combination with 17 (E. faecium LMG16003; 17 at 4 μM): 32 ± 0 µM; FICI, antibiotic with 17 (E. faecium LMG16003; fractional inhibitory concentration index, EUCAST, * means relevant FICI values): 1*; MIC of antibiotic in combination with 15 (S. aureus LMG8224; 15 at 2 μM): 2 ± 0 µM; MIC of antibiotic in combination with 15 (S. aureus LMG8224; 15 at 4 μM): 0.6 ± 0.1 µM; FICI, antibiotic with 15 (S. aureus LMG8224): 0.41
3 | [H]/N=C(/N)N[C@H]1[C@H](O)[C@@H](O)[C@H](O[C@@H]2O[C@@H](C)[C@](O)(C=O)[C@H]2O[C@@H]2O[C@@H](CO)[C@H](O)[C@@H](O)[C@@H]2NC)[C@@H](N/C(N)=N\[H])[C@@H]1O [Str, streptomycin] | 32 ± 0 | 8 ± 0 | 4 ± 0 | 16 ± 0 | 16 ± 0 | 0.75 |  | 
4 | CCCCCCCC(=O)OC[C@H]1O[C@@H](Oc2cc(O)cc(/C=C/c3ccc(O)cc3)c2)[C@H](O)[C@@H](O)[C@@H]1O [compound 3] |  |  |  |  |  |  |  | MIC (C. beijerinckii B504): 32 µM (≈ 16.5 µg/mL); MIC (C. botulinum CECT551): 32 µM (≈ 16.5 µg/mL); MIC (C. tetani CECT4629): 21.3 ± 5.3 µM (≈ 11 µg/mL)
5 | O=S(=O)(O)Oc1ccc(/C=C/c2cc(O)cc(OS(=O)(=O)O)c2)cc1 [compound 7, Resveratrol 3,4′-disulfate] |  |  |  |  |  |  | did not show antibiotic activity | 
6 | CCOc1cc(O)cc(/C=C/c2ccc(O)cc2)c1 [compound 10] |  |  |  |  |  |  |  | MIC (B. cereus ATCC10987): 128 µM (≈ 32.8 µg/mL); MIC (B. cereus ATCC14579): 128 µM (≈ 32.8 µg/mL)
7 | CC(C)(C)[Si](C)(C)Oc1cc(/C=C/c2ccc(O)cc2)cc(O[Si](C)(C)C(C)(C)C)c1 [compound 18] |  |  |  |  |  |  | not active or displayed very low antibacterial activity | 
8 | CC(C)(C)[Si](C)(C)Oc1ccc(/C=C/c2cc(O)cc(O[Si](C)(C)C(C)(C)C)c2)cc1 [compound 19] |  |  |  |  |  |  | not active or displayed very low antibacterial activity | MIC (C. beijerinckii B504): 32 µM (≈ 14.6 µg/mL); MIC (C. ihumii AP5): 128 µM (≈ 58.5 µg/mL); MIC (C. botulinum CECT551): 53.3 ± 10.6 µM (≈ 24.3 µg/mL); MIC (C. perfringens CECT376): 128 µM (≈ 58.5 µg/mL); MIC (C. tetani CECT4629): 5.3 ± 1.3 µM (≈ 2.42 µg/mL)
9 | CC[Si](CC)(CC)Oc1cc(/C=C/c2ccc(O)cc2)cc(O[Si](CC)(CC)CC)c1 [compound 21] |  |  |  |  |  |  | not active or displayed very low antibacterial activity | 
